From patent US8106038B2, “Method for reducing or preventing PDT related inflammation” (QLT Inc., priority 2001, dated 2012) come the findings set out here.

One series deals with MHC-II positive cells. The conditions noted are these: rabbit, in vivo.
For the next series, the system named is CD8 positive cells. To be noted: rabbit, in vivo.
The test system of another series is CD4 positive cells. The conditions noted are these: rabbit, in vivo.
For the next series, the system named is macrophages. To be noted: rabbit, in vivo. Here is the method:
Tetracaine HCI (0.5%) was used for topical anesthesia.
All eyes were enucleated immediately after euthanasia. […] Serial cryosections were cut and stored at −70° C. Non-treated eyes were used for control. Cryosections were stained with H&E and immunohistochemical staining.

Series [1] deals with CD4, CD8, Macrophage and MHC-II positive cells. Put plainly: Immunohistochemistry of inflammatory cells after PDT (combined statements).
Protocol: (§1) Twelve pigmented rabbits weighing between 2 and 4 kg were used. Animals were anesthetized with ketamine HCI (40 mg/kg) and xylocaine (5 mg/kg). Tetracaine HCI (0.5%) was used for topical anesthesia. Tropicamide (1%) and phenylephrine (2.5%) eye drops were used for pupillary dilation. Euthanasia was accomplished with sodium pentobarbital (150 mg/kg) intracardiac injection. Two rabbits were sacrificed at day 2, 7, 14, 28, 42 and 56 following PDT.
(§2) Ten rabbits were injected intravenously with 2 mg/kg BPD-MA, and 689 nm laser light at 600 mW/cm^2 was successively applied on three 1.25-mm spot in one eye according to the following schedule:
(§3) All eyes were enucleated immediately after euthanasia. After the cornea, lens, and vitreous were removed, experimental area was delineated with sharp cuts. Tissue was placed in freezing compound (OCT) and frozen in liquid nitrogen. Serial cryosections were cut and stored at −70° C. Non-treated eyes were used for control. Cryosections were stained with H&E and immunohistochemical staining.
Frozen sections were thawed and fixed with fresh acetone for 5 minutes. Endogenous peroxide activity was blocked with 0.3% hydrogen peroxide in phosphate buffered saline (PBS). After blocked with PBS and 1% bovine serum albumin (BSA), the specific primary antibodies were diluted in PBS with 1% BSA and incubated at room temperature for an hour. Detection was achieved using ABC Elite detection kit (DAKO) with aminoethylcarbizole as the chromogen. Sections were counterstained with light Mayers' hematoxylin, washed with tap water, and mounted in water soluble mounting medium (Biomeda, Catalogue no. MO1).
(§4) Normal-dose PDT was performed as phase 1 in three rabbits.
(§5) Immediately after each individual light treatment with normal-dose PDT, 5 mm Spot concentric with the 1.25 mm spot was exposed to 15 J/cm^2 (25 sec) in three rabbits. FA and fundus photography was taken as phase 1, and animals were sacrificed for immunohistochemical study at day 28 following PDT.
For series [2], the system named is normal rabbit choroid. To be noted: in vivo.
Protocol: as §1, §2
Following PDT, animals were kept in a dark room overnight.
Fluorescein angiography (FA) and fundus photography were performed as 2 baseline before PDT, the day after PDT, weekly, and at the day of sacrifice.
as §4, §5
Series [3] concerns normal rabbit choroid. To be noted: in vivo. The source holds these as a separate data set.
Protocol: as §1, §2, §3

Protocol for CD4 positive cells: as §1, §2, §3
(§6) Frozen sections were thawed and fixed with fresh acetone for 5 minutes. Endogenous peroxide activity was blocked with 0.3% hydrogen peroxide in phosphate buffered saline (PBS). After blocked with PBS and 1% bovine serum albumin (BSA), the specific primary antibodies were diluted in PBS with 1% BSA and incubated at room temperature for an hour. […]
Protocol for CD8 positive cells: as §1, §2, §3, §6

“9-methyl (I) and 13-methyl (II) trans-(±)-18-ethenyl-4,4a-dihydro-3,4-bis(methoxycarbonyl)-4a,8,14,19-tetramethyl-23H,25H-benzo[b]porphine-9,13-dipropanoate [BPD-MA]”: the “change of MHC-II positive cells versus control” value in the series on MHC-II positive cells is recorded as “statistically significantly increased”. Besides, in the series with CD8 positive cells, the “change of CD8 positive cells versus control” value is reported as “statistically significantly increased”. Further, in the series with CD4 positive cells, the “change of CD4 positive cells in treated area” value is “no significant increase” and the “change of CD4 positive cells versus control” value is “statistically significantly increased”. Moreover, in the series with macrophages, the “Macrophage positive cells after the additional low-dose PDT” value is reported as “slightly increased” and the “change of macrophages versus control” value is listed as “statistically significantly increased”. In addition, in series [1] (normal rabbit choroid), the “persistence of inflammatory reactions after therapeutic PDT” value is reported as at most 56 days. In addition, the “change of CD4, CD8, Macrophage and MHC-II positive cells compared to control” value in series [1] (rabbit, Phase 2, 4 weeks after low-dose PDT) is “slightly increased”. For the same substance, the “effect of additional concentric large diameter low-dose PDT on the increase in CD4, CD8, Macrophage and MHC-II positive cells after normal-dose PDT” value in series [1] (rabbit, Phase 3, day 28) was “suppressed the increase”. In series [1] (rabbit, low dose light 15 J/cm^2), the “effect of low dose light following therapeutic PDT on inflammation” value is recorded as “effectively inhibited the increase in inflammation”. The “neovascular leakage on fluorescein angiography” value with normal rabbit choroid [2] is “no neovascular leakages”. In addition, in the series with normal rabbit choroid [3], the “dependence of histologic damage on dose of light” value was “more severe with the higher dose of light”; the “histologic damage of RPE layer, photoreceptor layer, outer nuclear and plexiform layer” value was “damaged in all cases”; the “histologic damage of inner nuclear layer” value was “a little damages but generally preserved well”; the “state of choriocapillaries and larger choroidal vessels after PDT” value was “collapsed after PDT, but not the larger choroidal vessels”. For the same substance, the “time for RPE layer to begin to become a monolayer again” value in the series on normal rabbit choroid [3] was “in two weeks”.
